Data taken from ChEMBL document CHEMBL1201862, “PubChem BioAssay data set” (2004).
Active and inactive are the calls of the source.

Key:
[1] = protection from phage-mediated lysis, alamar blue read-out – E. coli UTI89, K1F phage, bacterial capsule biogenesis inhibitors (AID 488966); assay type: functional
[2] = molecular target: T1, Neuropeptide Y receptor type 1 (Homo sapiens, UniProt P25929); assay type: functional;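 further: HEK293 cells with a CNG channel challenged with NPY then isoproterenol; potency as antagonist that reverses NPY suppression of cAMP signal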
T1 sequence (P25929 whole entry): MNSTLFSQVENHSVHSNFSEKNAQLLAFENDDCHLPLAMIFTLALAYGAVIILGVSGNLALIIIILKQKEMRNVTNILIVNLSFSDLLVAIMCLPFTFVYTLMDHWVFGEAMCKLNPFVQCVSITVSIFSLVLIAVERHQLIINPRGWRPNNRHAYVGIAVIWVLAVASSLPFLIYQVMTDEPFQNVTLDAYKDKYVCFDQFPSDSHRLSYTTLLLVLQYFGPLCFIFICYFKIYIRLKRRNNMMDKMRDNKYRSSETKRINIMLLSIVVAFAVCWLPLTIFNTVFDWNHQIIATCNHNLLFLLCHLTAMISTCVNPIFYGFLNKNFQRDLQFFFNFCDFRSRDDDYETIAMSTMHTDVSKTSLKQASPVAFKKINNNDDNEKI

[3] = molecular target: Luciferin 4-monooxygenase (Photinus pyralis, UniProt P08659); test: inhibition of purified Photinus pyralis luciferase – biochemical, luminescence, dose response (AID 1891)
[4] = Luminescence Cell-Based Dose Confirmation HTS to Identify Inhibitors of Platelet Dense Granule Release. [Related pubchem assays: 1663 (Primary HTS), 1678 (Summary of Project)]; assay type: functional
[5] = molecular target: T2, Neuropeptide Y receptor type 2 (Homo sapiens, UniProt P49146); assay type: functional, cell-based;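 further: HEK293 cells expressing the receptor and a CNG channel; stimulus was NPY near EC95 followed by isoproterenol to raise cAMP; antagonist potency measured as restoring cAMP signal that NPY suppresses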
T2 sequence (P49146 whole entry): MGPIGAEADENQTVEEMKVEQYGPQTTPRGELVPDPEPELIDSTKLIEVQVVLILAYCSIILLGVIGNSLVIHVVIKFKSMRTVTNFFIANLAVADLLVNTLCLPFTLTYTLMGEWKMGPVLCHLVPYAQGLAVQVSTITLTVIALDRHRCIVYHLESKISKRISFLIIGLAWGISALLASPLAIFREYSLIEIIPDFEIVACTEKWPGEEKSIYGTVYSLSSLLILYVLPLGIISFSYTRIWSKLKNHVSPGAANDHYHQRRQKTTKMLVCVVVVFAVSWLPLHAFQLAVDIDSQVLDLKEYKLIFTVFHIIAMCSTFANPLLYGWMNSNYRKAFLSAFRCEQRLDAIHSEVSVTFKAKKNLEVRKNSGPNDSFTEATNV

Saccharomyces cerevisiae = test: S. cerevisiae Caspase-1/ASC signal blockers IC50, NALP1 inhibitor project selectivity test (AID 488863); assay type: functional, organism-based
[6] = molecular target: NACHT, LRR and PYD domains-containing protein 1 (Homo sapiens, UniProt Q9C000); test: NALP1 inhibitors in yeast, dose response, luminescent (AID 488860); assay type: functional
Chain of NACHT, LRR and PYD domains-containing protein 1 (Q9C000 1-1212 limits assumed): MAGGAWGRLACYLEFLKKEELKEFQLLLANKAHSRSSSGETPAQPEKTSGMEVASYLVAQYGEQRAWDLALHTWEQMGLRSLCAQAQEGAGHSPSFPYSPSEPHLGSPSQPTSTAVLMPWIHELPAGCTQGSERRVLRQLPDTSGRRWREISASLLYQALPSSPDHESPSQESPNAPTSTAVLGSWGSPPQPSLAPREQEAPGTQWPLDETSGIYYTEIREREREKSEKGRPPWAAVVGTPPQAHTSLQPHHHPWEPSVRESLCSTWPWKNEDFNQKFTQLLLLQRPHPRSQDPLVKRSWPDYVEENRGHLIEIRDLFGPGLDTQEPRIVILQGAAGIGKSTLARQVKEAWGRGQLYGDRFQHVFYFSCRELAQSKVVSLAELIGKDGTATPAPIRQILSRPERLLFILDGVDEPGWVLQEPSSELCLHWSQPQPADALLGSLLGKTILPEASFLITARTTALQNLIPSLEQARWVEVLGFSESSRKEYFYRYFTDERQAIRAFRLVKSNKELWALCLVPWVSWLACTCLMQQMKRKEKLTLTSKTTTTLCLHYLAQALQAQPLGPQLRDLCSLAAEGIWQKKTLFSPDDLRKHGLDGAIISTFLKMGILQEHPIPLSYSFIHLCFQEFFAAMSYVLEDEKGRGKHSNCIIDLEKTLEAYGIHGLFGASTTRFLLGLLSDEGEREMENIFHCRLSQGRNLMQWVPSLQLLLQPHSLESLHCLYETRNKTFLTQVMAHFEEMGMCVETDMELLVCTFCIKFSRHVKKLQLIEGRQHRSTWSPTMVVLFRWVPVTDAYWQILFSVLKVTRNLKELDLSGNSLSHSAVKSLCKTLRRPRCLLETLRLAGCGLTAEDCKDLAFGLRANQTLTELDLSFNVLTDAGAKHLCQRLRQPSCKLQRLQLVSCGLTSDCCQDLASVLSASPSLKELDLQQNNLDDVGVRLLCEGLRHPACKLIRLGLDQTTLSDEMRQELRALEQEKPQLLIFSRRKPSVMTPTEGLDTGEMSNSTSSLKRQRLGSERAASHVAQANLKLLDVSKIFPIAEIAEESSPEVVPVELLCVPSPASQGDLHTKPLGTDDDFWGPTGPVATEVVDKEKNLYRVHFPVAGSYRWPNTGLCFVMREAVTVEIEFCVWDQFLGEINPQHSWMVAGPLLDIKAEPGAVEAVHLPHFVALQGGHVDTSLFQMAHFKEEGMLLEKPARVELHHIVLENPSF
Chain of NACHT, LRR and PYD domains-containing protein 1 (Q9C000 1213-1473 limits assumed): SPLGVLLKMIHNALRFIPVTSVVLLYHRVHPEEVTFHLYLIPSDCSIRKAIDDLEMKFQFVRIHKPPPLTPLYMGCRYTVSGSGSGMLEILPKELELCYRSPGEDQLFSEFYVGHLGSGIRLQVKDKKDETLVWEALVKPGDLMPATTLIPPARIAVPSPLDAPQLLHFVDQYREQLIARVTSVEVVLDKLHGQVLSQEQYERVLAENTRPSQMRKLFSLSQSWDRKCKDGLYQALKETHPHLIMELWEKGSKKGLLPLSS

[7] = BJeHLT cell viability loss – BJeHLT cells, dry powder, counter-screen for Ras selective lethality project, dose response (AID 493052); assay type: functional, cell-based; settings: Homo sapiens
[8] = DRD BJ cell killing, Ras synthetic lethality – DRD BJ fibroblasts, HRASV12, dry powder, dose response (AID 493049); assay type: functional, cell-based
[9] = HRAS-V12 fibroblast viability reduction – cell-based, Alamar Blue, dry powder, Ras selective lethality project, primary screen (AID 493045); assay type: functional; settings: BJeLR
[10] = BJeH cell viability loss – BJeH cells, dry powder, counter-screen for Ras selective lethality project, dose response (AID 493054); assay type: functional, cell-based
[11] = molecular target: Intestinal-type alkaline phosphatase (Homo sapiens, UniProt P09923); test: Dose Response confirmation of uHTS hits from a small molecule inhibitors of human intestinal alkaline phosphatase via a luminescent assay. [Related pubchem assays (depositor defined):AID2544, AID2574]; assay type: functional
[12] = molecular target: T3, Corticotropin-releasing factor receptor 2/Corticotropin-releasing factor-binding protein (Homo sapiens, UniProt P24387+Q13324); test: Dose Response confirmation of uHTS hits for small molecule antagonists of the CRF-binding protein and CRF-R2 receptor complex.; assay type: functional; settings: read-out: IC50_Mean
T3 sequence (Q13324 whole entry): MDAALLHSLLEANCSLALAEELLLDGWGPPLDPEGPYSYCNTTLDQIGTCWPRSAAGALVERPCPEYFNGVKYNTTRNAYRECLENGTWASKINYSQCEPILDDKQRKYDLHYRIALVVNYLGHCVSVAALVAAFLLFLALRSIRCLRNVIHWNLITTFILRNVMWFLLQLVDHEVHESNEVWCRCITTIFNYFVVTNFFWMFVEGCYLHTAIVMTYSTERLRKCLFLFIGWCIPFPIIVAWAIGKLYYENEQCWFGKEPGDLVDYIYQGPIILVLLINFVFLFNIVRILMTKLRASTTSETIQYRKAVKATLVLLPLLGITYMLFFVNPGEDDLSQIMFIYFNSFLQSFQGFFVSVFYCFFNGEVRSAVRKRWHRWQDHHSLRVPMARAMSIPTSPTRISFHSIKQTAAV
T3 sequence (P24387 whole entry): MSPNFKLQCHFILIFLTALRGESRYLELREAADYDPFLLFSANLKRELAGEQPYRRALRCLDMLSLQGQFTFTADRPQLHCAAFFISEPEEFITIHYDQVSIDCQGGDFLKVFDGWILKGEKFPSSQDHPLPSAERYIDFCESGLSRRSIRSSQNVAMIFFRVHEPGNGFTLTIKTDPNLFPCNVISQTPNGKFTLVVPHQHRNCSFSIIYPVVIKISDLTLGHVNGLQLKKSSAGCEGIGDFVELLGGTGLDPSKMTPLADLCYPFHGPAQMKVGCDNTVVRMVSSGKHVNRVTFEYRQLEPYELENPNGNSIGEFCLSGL

[13] = molecular target: T3, Corticotropin-releasing factor receptor 2/Corticotropin-releasing factor-binding protein; test: activators of CRF receptor 2 with binding protein – uHTS hits, confirmation (AID 602473); assay type: functional; settings: read-out: EC50_Mean
[14] = molecular target: Eukaryotic translation initiation factor 4H (Homo sapiens, UniProt Q15056); test: inhibitors of translation initiation factor eIF4H – SAR follow-up (AID 435011); assay type: functional
[15] = molecular target: Polyadenylate-binding protein 1 (Homo sapiens, UniProt P11940); test: PABP inhibition in translation initiation, SAR follow-up (AID 435018); assay type: functional
Chain of Polyadenylate-binding protein 1 (P11940 whole entry): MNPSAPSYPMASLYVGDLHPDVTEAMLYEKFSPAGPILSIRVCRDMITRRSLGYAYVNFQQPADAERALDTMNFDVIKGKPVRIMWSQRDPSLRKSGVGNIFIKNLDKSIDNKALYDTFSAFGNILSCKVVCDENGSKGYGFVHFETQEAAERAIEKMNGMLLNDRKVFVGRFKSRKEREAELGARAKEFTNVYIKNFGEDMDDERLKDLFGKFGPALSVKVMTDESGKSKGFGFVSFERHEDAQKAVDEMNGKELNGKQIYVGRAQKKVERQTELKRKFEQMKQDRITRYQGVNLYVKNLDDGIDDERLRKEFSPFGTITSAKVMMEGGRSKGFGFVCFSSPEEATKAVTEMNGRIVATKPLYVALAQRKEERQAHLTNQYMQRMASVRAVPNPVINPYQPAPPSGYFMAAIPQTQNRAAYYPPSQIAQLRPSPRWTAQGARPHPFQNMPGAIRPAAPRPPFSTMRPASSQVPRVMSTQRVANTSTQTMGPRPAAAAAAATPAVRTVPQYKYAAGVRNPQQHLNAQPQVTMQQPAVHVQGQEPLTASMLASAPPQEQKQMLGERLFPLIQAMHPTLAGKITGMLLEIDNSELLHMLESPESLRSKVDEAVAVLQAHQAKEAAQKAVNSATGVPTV

Large T antigen = Large T antigen (Simian virus 40, UniProt P03070); test: A confirmatory biochemical assay using the ADP-Hunter methodology, purified TAg, and ATP to quantify activity of synthesized compounds that inhibit the ATPase activity of Tag (3). [Related pubchem assays (depositor defined):AID1903, AID1909, AID2102, AID2501, AID2615, AID2775, AID435001, AID449729]; parameters: species or system Betapolyomavirus macacae
Chain of Large T antigen (P03070 whole entry): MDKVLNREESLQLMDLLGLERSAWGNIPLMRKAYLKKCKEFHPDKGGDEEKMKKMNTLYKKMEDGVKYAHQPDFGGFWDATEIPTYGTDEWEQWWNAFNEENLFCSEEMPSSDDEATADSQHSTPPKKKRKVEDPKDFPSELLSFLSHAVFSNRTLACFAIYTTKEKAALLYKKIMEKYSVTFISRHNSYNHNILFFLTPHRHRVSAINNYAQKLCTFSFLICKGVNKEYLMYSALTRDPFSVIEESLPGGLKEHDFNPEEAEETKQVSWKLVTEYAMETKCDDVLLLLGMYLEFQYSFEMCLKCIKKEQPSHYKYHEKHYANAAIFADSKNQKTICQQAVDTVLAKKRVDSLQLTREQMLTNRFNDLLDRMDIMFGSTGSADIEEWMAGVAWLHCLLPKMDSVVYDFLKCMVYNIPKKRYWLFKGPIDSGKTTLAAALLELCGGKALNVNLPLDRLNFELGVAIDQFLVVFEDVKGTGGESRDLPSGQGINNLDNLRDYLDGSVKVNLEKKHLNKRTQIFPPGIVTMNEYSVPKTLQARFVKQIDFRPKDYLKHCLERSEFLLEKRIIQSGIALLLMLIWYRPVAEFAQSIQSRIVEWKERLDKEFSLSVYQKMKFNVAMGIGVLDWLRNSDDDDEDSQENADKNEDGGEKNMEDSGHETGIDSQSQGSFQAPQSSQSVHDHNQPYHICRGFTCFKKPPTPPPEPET

[16] = molecular target: T4, Kappa-type opioid receptor (Homo sapiens, UniProt P41145); assay type: functional
T4 sequence (P41145 whole entry): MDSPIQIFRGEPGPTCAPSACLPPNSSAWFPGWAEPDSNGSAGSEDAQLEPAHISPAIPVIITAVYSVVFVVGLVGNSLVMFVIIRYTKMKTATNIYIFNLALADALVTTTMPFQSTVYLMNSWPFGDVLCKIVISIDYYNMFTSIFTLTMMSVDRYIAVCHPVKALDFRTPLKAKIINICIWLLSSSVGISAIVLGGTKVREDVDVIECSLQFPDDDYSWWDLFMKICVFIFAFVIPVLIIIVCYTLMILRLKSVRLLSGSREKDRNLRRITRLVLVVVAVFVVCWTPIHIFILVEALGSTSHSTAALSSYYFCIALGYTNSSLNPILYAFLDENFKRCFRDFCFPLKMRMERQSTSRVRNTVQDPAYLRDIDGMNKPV

[17] = molecular target: T4, Kappa-type opioid receptor; assay type: functional; remark: listed apart in the source
Mu-type opioid receptor [18] = molecular target: T5, Mu-type opioid receptor (Homo sapiens, UniProt P35372); test: mu opioid receptor activators, image-based, SAR follow-up (AID 2352); assay type: functional
T5 sequence (P35372 whole entry): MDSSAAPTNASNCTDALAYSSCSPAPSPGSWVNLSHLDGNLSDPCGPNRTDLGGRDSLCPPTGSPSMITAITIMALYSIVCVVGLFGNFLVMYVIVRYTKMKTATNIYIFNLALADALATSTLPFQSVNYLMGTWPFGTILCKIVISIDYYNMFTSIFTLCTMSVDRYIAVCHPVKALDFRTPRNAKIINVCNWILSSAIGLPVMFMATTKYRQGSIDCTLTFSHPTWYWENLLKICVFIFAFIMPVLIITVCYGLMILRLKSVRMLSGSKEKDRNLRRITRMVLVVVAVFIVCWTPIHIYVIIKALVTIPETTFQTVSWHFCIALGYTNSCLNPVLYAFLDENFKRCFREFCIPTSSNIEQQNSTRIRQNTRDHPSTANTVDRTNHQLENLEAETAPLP

[19] = molecular target: T6, Delta-type opioid receptor (Homo sapiens, UniProt P41143); test: DOR agonists, SAR follow-up, image-based (AID 2370); assay type: functional
T6 sequence (P41143 whole entry): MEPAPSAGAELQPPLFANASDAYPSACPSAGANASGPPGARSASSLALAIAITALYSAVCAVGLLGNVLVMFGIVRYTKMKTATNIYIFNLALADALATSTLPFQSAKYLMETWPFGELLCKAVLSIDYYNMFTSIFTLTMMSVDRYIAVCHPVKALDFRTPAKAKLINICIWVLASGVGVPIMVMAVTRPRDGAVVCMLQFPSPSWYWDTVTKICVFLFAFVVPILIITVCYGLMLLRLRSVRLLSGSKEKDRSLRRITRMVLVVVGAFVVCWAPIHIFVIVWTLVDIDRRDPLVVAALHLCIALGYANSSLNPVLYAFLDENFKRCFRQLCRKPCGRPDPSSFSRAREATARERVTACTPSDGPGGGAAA

[20] = molecular target: T4, Kappa-type opioid receptor; test: kappa opioid receptor blockers, image-based, SAR follow-up (AID 2348); assay type: functional
Mu-type opioid receptor [21] = molecular target: T5, Mu-type opioid receptor; test: mu opioid receptor blockers – image-based, SAR follow-up (AID 2420); assay type: functional;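 further: compounds added before stimulation of receptor with agonist DAMGO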
[22] = molecular target: T6, Delta-type opioid receptor; test: delta opioid receptor blockers – image-based, SAR follow-up (AID 2357); assay type: functional
[23] = molecular target: G-protein coupled receptor 35 (Homo sapiens, UniProt Q9HC97); test: inhibition of zaprinast-stimulated GPR35 beta-arrestin translocation – imaging, U2OS, beta-arrestin-GFP, zaprinast agonist, primary screen (AID 2058); assay type: functional;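 further: antagonist potency meaning inhibition of agonist-induced arrestin redistribution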
Chain of G-protein coupled receptor 35 (Q9HC97 whole entry): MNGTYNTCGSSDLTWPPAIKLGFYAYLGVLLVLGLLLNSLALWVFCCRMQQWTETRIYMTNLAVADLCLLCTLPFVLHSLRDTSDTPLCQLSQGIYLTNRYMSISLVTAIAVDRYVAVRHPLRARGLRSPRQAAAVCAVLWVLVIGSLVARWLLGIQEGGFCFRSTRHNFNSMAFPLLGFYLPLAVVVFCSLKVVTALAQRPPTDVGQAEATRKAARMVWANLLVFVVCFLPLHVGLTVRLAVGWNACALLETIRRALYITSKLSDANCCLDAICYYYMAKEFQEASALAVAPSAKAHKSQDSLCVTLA

[24] = molecular target: T7, Replicative DNA helicase DnaB (Mycobacterium tuberculosis, UniProt P9WMR3); test: DnaB intein splicing inhibitors, dose response, biochemical, cell-free fluorescence (AID 449749); assay type: functional
T7 sequence (P9WMR3 whole entry): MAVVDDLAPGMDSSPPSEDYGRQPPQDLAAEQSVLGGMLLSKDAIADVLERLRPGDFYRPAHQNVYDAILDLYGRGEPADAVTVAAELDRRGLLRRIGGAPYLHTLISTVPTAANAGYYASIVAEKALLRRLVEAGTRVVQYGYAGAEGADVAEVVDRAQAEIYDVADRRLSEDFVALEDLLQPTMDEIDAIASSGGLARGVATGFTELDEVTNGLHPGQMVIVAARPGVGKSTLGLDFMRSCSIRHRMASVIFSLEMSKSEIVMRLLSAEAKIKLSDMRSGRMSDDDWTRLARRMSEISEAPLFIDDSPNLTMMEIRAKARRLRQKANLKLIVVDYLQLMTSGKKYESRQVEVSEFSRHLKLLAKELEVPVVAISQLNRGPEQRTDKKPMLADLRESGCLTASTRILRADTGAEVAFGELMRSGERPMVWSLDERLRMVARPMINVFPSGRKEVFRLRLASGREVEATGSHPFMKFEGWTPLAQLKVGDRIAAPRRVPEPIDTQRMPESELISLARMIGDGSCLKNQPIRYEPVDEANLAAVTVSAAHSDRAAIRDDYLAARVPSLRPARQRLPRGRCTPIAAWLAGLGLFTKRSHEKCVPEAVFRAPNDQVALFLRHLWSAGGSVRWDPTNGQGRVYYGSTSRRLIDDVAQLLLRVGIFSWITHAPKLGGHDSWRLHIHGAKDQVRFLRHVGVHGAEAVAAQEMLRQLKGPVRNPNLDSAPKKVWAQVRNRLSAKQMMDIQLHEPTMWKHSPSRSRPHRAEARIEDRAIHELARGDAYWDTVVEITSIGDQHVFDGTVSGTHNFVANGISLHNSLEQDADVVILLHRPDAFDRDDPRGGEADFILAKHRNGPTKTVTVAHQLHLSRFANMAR

Protein RecA = molecular target: T8, Protein RecA (Mycobacterium tuberculosis, UniProt P9WHJ3); test: Fluorescence Cell-Free Homogeneous Dose Retest to Identify Inhibitors of RecA-Intein Splicing Activity. [Related pubchem assays (depositor defined):AID2097, AID2223, AID489010, AID492950]; assay type: functional
T8 sequence (P9WHJ3 whole entry): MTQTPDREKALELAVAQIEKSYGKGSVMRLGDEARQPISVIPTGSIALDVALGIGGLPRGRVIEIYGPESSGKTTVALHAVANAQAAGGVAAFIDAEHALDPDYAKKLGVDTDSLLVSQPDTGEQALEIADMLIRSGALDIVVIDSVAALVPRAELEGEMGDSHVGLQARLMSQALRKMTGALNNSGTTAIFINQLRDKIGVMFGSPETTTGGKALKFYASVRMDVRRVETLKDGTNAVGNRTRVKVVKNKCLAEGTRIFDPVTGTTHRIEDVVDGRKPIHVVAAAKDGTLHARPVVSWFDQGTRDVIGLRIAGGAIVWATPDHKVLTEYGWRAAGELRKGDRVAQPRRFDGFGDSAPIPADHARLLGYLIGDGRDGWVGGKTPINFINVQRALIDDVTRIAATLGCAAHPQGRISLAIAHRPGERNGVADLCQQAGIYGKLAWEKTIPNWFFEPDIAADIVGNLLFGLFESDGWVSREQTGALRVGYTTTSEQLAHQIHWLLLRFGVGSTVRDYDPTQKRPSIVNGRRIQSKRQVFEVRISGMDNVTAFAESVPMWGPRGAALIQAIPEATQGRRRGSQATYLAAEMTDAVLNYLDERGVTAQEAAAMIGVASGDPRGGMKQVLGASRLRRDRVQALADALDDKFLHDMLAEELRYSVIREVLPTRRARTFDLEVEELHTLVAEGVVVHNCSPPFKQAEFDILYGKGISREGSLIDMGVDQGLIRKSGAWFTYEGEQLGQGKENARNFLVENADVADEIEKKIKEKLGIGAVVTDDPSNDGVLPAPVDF

**Q.** With CC/C(=C(/c1ccccc1)c1ccc(OCC[N+](C)(C)C)cc1)c1ccccc1 as the compound, how does the IC50 [1] read?
**A.** The IC50 was > 150 µM (active).

**Q.** Which results are given for COc1cc(/C=N/n2cnnc2)ccc1OCc1ccc(C)cc1?
**A.** IC50 [2]: 7.08 µM (active); EC50 [3]: > 112 µM (not active); EC50 [4]: 20.8 µM (active); IC50 [5]: 4.18 µM (active); IC50 (Saccharomyces cerevisiae): > 100 µM (inactive); IC50 [6]: > 100 µM (inactive)

**Q.** Which results are given for COc1ccc(N(C(=O)CCl)C(C(=O)NCc2ccccc2)c2cccs2)cc1Cl (configuration not stated)?
**A.** AC50 [7]: 0.179 µM (active); AC50 [8]: 0.098 µM (active); AC50 [9]: 0.075 µM (active); AC50 [10]: 0.336 µM (active)

**Q.** Which results are given for Cc1ccccc1CNC(=O)c1ccccc1N?
**A.** IC50 [11]: > 100 µM (inactive); IC50 [12]: > 47.1 µM (inactive); EC50 [13]: > 53 µM (inactive)

**Q.** What does the source list for COc1ccccc1N=C1SC(C(=O)Nc2ccc(F)cc2)CC(=O)N1C (configuration not stated)?
**A.** IC50 [14]: > 100 µM (inactive); IC50 [15]: > 100 µM (inactive)

**Q.** For Oc1ccc(Oc2ccc(O)cc2)cc1, which IC50 (Large T antigen) is on record?
**A.** The IC50 was 37.7 µM (active).

**Q.** With CC(C)(C)c1ccc(CSc2nnc(-c3ccccn3)n2Cc2ccco2)cc1 as the compound, how does the EC50 [16] read?
**A.** The EC50 was 1.02 µM.

**Q.** And the EC50 [17]?
**A.** Its EC50 is 2.18 µM.

**Q.** And the EC50 (Mu-type opioid receptor [18])?
**A.** The EC50 was > 32 µM (inactive).

**Q.** And the EC50 [19]?
**A.** Its EC50 is > 32 µM (inactive).

**Q.** And the IC50 [20]?
**A.** The IC50 was > 32 µM (inactive).

**Q.** And the IC50 (Mu-type opioid receptor [21])?
**A.** The IC50 was > 32 µM (inactive).

**Q.** What about the IC50 [22] of the same compound?
**A.** The IC50 was > 32 µM (inactive).

**Q.** For CC1(CC(=O)N/N=C/c2ccc(OCc3ccc(Cl)cc3Cl)cc2)OCCCO1, which IC50 [23] is on record?
**A.** Its IC50 is < 0.5 µM (active).

**Q.** What about the AC50 [24] of the same compound?
**A.** The AC50 was 3.09 µM (active).

**Q.** And the EC50 (Protein RecA)?
**A.** Its EC50 is 11.1 µM (active).
